Source: PubChem BioAssay (NCI)
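A five-concentration, 48-hour dose response in 96-well plates underlies each endpoint, interpolated linearly between surrounding concentrations. At the TGI there is no net growth.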

What was measured:
Test in all cases: DTP human tumour cell line panel, 48 h
CCRF-CEM leukemia = system: CCRF-CEM leukemia
HCT-116 colon = system: HCT-116 colon
HT29 colon = system: HT29 colon
KM12 colon = system: KM12 colon
MCF7 breast = system: MCF7 breast
MDA-MB-231 breast = system: MDA-MB-231 breast
MDA-MB-435 = system: MDA-MB-435
MOLT-4 leukemia = system: MOLT-4 leukemia
NCI-H226 lung = system: NCI-H226 lung
NCI/ADR-RES ovarian = system: NCI/ADR-RES ovarian
SF-539 CNS = system: SF-539 CNS
SK-MEL-5 melanoma = system: SK-MEL-5 melanoma
SN12C renal = system: SN12C renal
SR leukemia = system: SR leukemia
M14 melanoma = system: M14 melanoma

| Structure (SMILES) | TGI (CCRF-CEM leukemia) [µM] | TGI (HCT-116 colon) [µM] | TGI (HT29 colon) [µM] | TGI (KM12 colon) [µM] | TGI (MCF7 breast) [µM] | TGI (MDA-MB-231 breast) [µM] | TGI (MDA-MB-435) [µM] | TGI (MOLT-4 leukemia) [µM] | TGI (NCI-H226 lung) [µM] | TGI (NCI/ADR-RES ovarian) [µM] | TGI (SF-539 CNS) [µM] | TGI (SK-MEL-5 melanoma) [µM] | TGI (SN12C renal) [µM] | TGI (SR leukemia) [µM] | TGI (M14 melanoma) [µM] |
| --- | --- | --- | --- | --- | --- | --- | --- | --- | --- | --- | --- | --- | --- | --- | --- |
| COc1cc2c(c(OC)c1)/C(=C/Sc1ccccc1)C(=O)N(C(C)(C)C)C2 | > 100 | 40.2 | 75.1 | 66.1 | 96.3 | 64.4 | 55.2 | > 100 | > 100 | 56.7 | > 100 | 36.2 | 69 | 66.7 | – |
| NC(N)=NCCCC(NC(=O)c1cccc2c(=O)c3ccccc3[nH]c12)C(=O)O (stereo unspecified) | > 100 | > 100 | > 100 | > 100 | > 100 | > 100 | > 100 | > 100 | > 100 | > 100 | – | > 100 | > 100 | > 100 | > 100 |
| O=C1C(Cl)=C(Nc2ccc(S(=O)(=O)O)cc2)C(=O)c2ccccc21 | > 100 | > 100 | > 100 | 56.3 | 49.1 | > 100 | 39.6 | > 100 | 61.9 | > 100 | 57.9 | 28 | – | > 100 | 47.1 |
| O=c1ssc(=Nc2ccccc2)n1-c1ccccc1 | > 100 | – | > 100 | > 100 | 35.7 | 60.5 | > 100 | > 100 | 46.5 | 68.2 | > 100 | > 100 | 41.1 | 40.9 | 48.3 |
| CCOC(=O)C1C(c2ccc3c(c2)OCO3)c2c([nH][nH]c2=O)CC1(C)O (stereo unspecified) | > 100 | > 100 | > 100 | > 100 | > 100 | > 100 | > 100 | > 100 | – | > 100 | > 100 | > 100 | > 100 | > 100 | > 100 |
| O=C1OCC2OC(=O)c3cc(O)c(O)c(O)c3-c3c(O)c(O)c(O)c4c3C(=O)OC(C2OC(=O)c2cc(O)c(O)c(O)c2-c2c1cc(O)c(O)c2O)C1OC(=O)c2c-4c(O)c(O)c(O)c2[C@@H]1C(O)C(O)C(O)C(O)CO (stereo partly specified) | 23.7 | 31.3 | 36 | 52.3 | 17.6 | 30.5 | 21.9 | 49.8 | 42.6 | 66.1 | – | 28 | 32.6 | > 100 | 39.4 |
| CC(=O)c1ccc2c(c1)CC1(C2)Cc2cc3c(cc2C1=O)CCC3 (stereo unspecified) | 59.2 | 44 | > 100 | 32.4 | 43.8 | 49.6 | 32.4 | 21.8 | – | 39.4 | 72.4 | 22.5 | 57.3 | 16.7 | 28.9 |
| CC(C)(C)OC(=O)N/N=C(/N)Cc1ccc(Cl)cc1 | > 100 | > 100 | > 100 | > 100 | > 100 | > 100 | > 100 | > 100 | > 100 | > 100 | – | > 100 | > 100 | > 100 | > 100 |
| CC1(C)C=Cc2c(cc(O)c3c(=O)c4cc(Cl)ccc4[nH]c23)O1 | > 10 | > 10 | > 10 | 8.75 | > 10 | > 10 | > 10 | 8.22 | – | 5.97 | > 10 | 6.33 | > 10 | > 10 | – |
| COc1cc(/C=C/c2nc(NC(=S)Nc3ccccc3)nnc2C)cc(OC)c1OC | 57.7 | 86 | 48.8 | 27.6 | > 100 | > 100 | > 100 | > 100 | 81.4 | > 100 | – | 29.1 | > 100 | > 100 | > 100 |
| CS(=O)(=O)OCC1CN(S(C)(=O)=O)c2cc(O)ccc21 (stereo unspecified) | 5.76 | 12.8 | 11.1 | 13 | 26.2 | 6.8 | 4.07 | 6.93 | 12.3 | 19.9 | 7 | 3.52 | 13.5 | > 100 | – |
| COc1c(Br)cc2c(c1OC)C(Br)CCC(Br)(Br)C2=O (stereo unspecified) | – | 0.853 | 3.71 | 14.6 | 6.13 | 8.32 | 3.62 | 5.73 | 5.84 | 2.77 | 5.25 | 6.26 | 1.42 | 1.29 | 0.539 |
| O=C(NC1CCCCC1NC(c1ccccc1)(c1ccccc1)c1ccccc1)C(=O)NC1CCCCC1NC(c1ccccc1)(c1ccccc1)c1ccccc1 (stereo unspecified) | > 100 | > 100 | > 100 | > 100 | > 100 | > 100 | > 100 | > 100 | > 100 | > 100 | > 100 | > 100 | > 100 | > 100 | – |
